Values of other authors as cited in article PMC9441020 (Journal of medicinal chemistry, 2022).

SMILES	inhibition of HIV-1 INST (HIV-1 INST)	inhibition of HCV NS5B (HCV NS5B)
O=C(O)c1nc(-c2cccs2)nc(O)c1O [compound 10, 5-Hydroxy-6-oxo-2-(thiophen-2-yl)-1,6-dihydropyrimidine-4-carboxylic acid]	did not inhibit	effectively inhibiting
O=C(NCc1ccccc1)c1nc(-c2cccs2)nc(O)c1O [compound 11, N-Benzyl-5-hydroxy-6-oxo-2-(thiophen-2-yl)-1,6-dihydropyrimidine-4-carboxamide]	potently inhibited	without significantly inhibiting
